Patent US12479843B2, “Spiro ring-containing quinazoline compounds” (WIGEN BIOMEDICINE TECHNOLOGY (SHANGHAI) CO., LTD., priority 2019, dated 2025)

Legend:
H358 cells = assay: Antiproliferative activity against H358 cells (Cell Titer Glow, ultra-low attachment plate); type: cell-based; conditions: Homo sapiens, NCI-H358, 72 h, 96-well ultra-low attachment plate, three days after addition of compound, Cell Titer Glow
Experimental: 2500 H358 cells were seeded in a 96-well ultra-low attachment plate (corning, 7007). After one day of growth, a serially diluted compound (a maximum concentration of 5 μM, 5-fold dilution, a total of five doses) was added. Three days after the addition of the compound, Cell Titer Glow (Promega, G9681) was added to evaluate pellet growth, and the IC50 value was calculated.

pERK level in H358 cells = assay: pERK and ERK protein content assay in H358 cells (ELISA); type: cell-based; conditions: Homo sapiens, NCI-H358, compound 1 μM, 24 h, pERK/ERK ratio compared with DMSO group, read-out: Inhibition rate (%) of pERK level
Method in brief: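 H358 cells grown one day, then treated 24 h with compound at 1 μM. pERK and ERK in lysates measured by ELISA; pERK/ERK ratio expressed as percent inhibition versus DMSO.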

SMILES | IC50 (H358 cells) | inhibition at 1 µM (pERK level in H358 cells)
C=CC(=O)N1CC2(CCN(c3nc(N4CC(N5CCC[C@@H]5C#N)C4)nc4c(OCC(F)(F)F)c(-c5c(C)ccc6[nH]ncc56)c(C5CC5)cc34)CC2)C1 [Compound 249] | 300 to 1000 nM | 50 to 90%
C=CC(=O)N1CC2(CCN(c3nc(N4CC(N5CCC[C@H]5C#N)C4)nc4c(OCC(F)(F)F)c(-c5c(C)ccc6[nH]ncc56)c(C5CC5)cc34)CC2)C1 [Compound 250] | 300 to 1000 nM | 50 to 90%
C=CC(=O)N1CC2(CCN(c3nc(N4CC(N5CCC[C@@H]5CO)C4)nc4c(OCC(F)(F)F)c(-c5c(C)ccc6[nH]ncc56)c(C5CC5)cc34)CC2)C1 [Compound 251] | < 300 nM | > 90%
C=CC(=O)N1CC2(CCN(c3nc(N4CC(N5CCC[C@H]5CO)C4)nc4c(OCC(F)(F)F)c(-c5c(C)ccc6[nH]ncc56)c(C5CC5)cc34)CC2)C1 [Compound 252] | < 300 nM | > 90%
C=CC(=O)N1CC2(CCN(c3nc(N4CC(N5CC[C@H](C(C)(C)O)C5)C4)nc4c(OCC(F)(F)F)c(-c5c(C)ccc6[nH]ncc56)c(C5CC5)cc34)CC2)C1 [Compound 253] | 300 to 1000 nM | > 90%
C=CC(=O)N1CC2(CCN(c3nc(N4CC(N5CC[C@@H](C(C)(C)O)C5)C4)nc4c(OCC(F)(F)F)c(-c5c(C)ccc6[nH]ncc56)c(C5CC5)cc34)CC2)C1 [Compound 254] | 300 to 1000 nM | > 90%
C=CC(=O)N1CC2(CCN(c3nc(N4CC(N5CC[C@H](N(C)C)C5)C4)nc4c(OCC(F)(F)F)c(-c5c(C)ccc6[nH]ncc56)c(C5CC5)cc34)CC2)C1 [Compound 255] | < 300 nM | > 90%
C=CC(=O)N1CC2(CCN(c3nc(N4CC(N5CC[C@@H](N(C)C)C5)C4)nc4c(OCC(F)(F)F)c(-c5c(C)ccc6[nH]ncc56)c(C5CC5)cc34)CC2)C1 [Compound 256] | < 300 nM | > 90%
C=CC(=O)N1CC2(CCN(c3nc(N4CC(N5CC[C@H](C#N)C5)C4)nc4c(OCC(F)(F)F)c(-c5c(C)ccc6[nH]ncc56)c(C5CC5)cc34)CC2)C1 [Compound 257] | 300 to 1000 nM | > 90%
C=CC(=O)N1CC2(CCN(c3nc(N4CC(N5CC[C@@H](C#N)C5)C4)nc4c(OCC(F)(F)F)c(-c5c(C)ccc6[nH]ncc56)c(C5CC5)cc34)CC2)C1 [Compound 258] | 300 to 1000 nM | > 90%
C=CC(=O)N1CC2(CCN(c3nc(N4CC(N5C[C@@H](O)C[C@H]5C)C4)nc4c(OCC(F)(F)F)c(-c5c(C)ccc6[nH]ncc56)c(C5CC5)cc34)CC2)C1 [Compound 259] | < 300 nM | > 90%
C=CC(=O)N1CC2(CCN(c3nc(N4CC(N5C[C@H](O)C[C@H]5C)C4)nc4c(OCC(F)(F)F)c(-c5c(C)ccc6[nH]ncc56)c(C5CC5)cc34)CC2)C1 [Compound 260] | < 300 nM | > 90%
C=CC(=O)N1CC2(CCN(c3nc(N4CC(N5C[C@H](O)[C@@H](F)C5)C4)nc4c(OCC(F)(F)F)c(-c5c(C)ccc6[nH]ncc56)c(C5CC5)cc34)CC2)C1 [Compound 261] | < 300 nM | > 90%
C=CC(=O)N1CC2(CCN(c3nc(N4CC(N5C[C@@H](O)[C@@H](F)C5)C4)nc4c(OCC(F)(F)F)c(-c5c(C)ccc6[nH]ncc56)c(C5CC5)cc34)CC2)C1 [Compound 262] | < 300 nM | > 90%
C=CC(=O)N1CC2(CCN(c3nc(N4CC(N5C[C@H](OC)[C@@H](F)C5)C4)nc4c(OCC(F)(F)F)c(-c5c(C)ccc6[nH]ncc56)c(C5CC5)cc34)CC2)C1 [Compound 263] | < 300 nM | > 90%
C=CC(=O)N1CC2(CCN(c3nc(N4CC(N5C[C@H](F)[C@H](OC)C5)C4)nc4c(OCC(F)(F)F)c(-c5c(C)ccc6[nH]ncc56)c(C5CC5)cc34)CC2)C1 [Compound 264] | < 300 nM | > 90%
C=CC(=O)N1CC2(CCN(c3nc(N4CC(N5C[C@@H](C)[C@@H](O)C5)C4)nc4c(OCC(F)(F)F)c(-c5c(C)ccc6[nH]ncc56)c(C5CC5)cc34)CC2)C1 [Compound 265] | < 300 nM | > 90%
C=CC(=O)N1CC2(CCN(c3nc(N4CC(N5C[C@@H](C)[C@@H](OC)C5)C4)nc4c(OCC(F)(F)F)c(-c5c(C)ccc6[nH]ncc56)c(C5CC5)cc34)CC2)C1 [Compound 266] | < 300 nM | > 90%

SMILES | IC50 (H358 cells) | inhibition at 1 µM (pERK level in H358 cells)
C=CC(=O)N1CC2(CCN(c3nc(N4CC(N5C[C@@H](F)[C@@H](F)C5)C4)nc4c(OCC(F)(F)F)c(-c5c(C)ccc6[nH]ncc56)c(C5CC5)cc34)CC2)C1 [Compound 267] | < 300 nM | > 90%
C=CC(=O)N1CC2(CCN(c3nc(N4CC(N5CCC(C)CC5)C4)nc4c(OCC(F)(F)F)c(-c5c(C)ccc6[nH]ncc56)c(C5CC5)cc34)CC2)C1 [Compound 268] | < 300 nM | > 90%
C=CC(=O)N1CC2(CCN(c3nc(N4CC(N5CCC(C)(C)CC5)C4)nc4c(OCC(F)(F)F)c(-c5c(C)ccc6[nH]ncc56)c(C5CC5)cc34)CC2)C1 [Compound 269] | < 300 nM | > 90%
C=CC(=O)N1CC2(CCN(c3nc(N4CC(N5C6CCC5CC6)C4)nc4c(OCC(F)(F)F)c(-c5c(C)ccc6[nH]ncc56)c(C5CC5)cc34)CC2)C1 [Compound 270] | < 300 nM | > 90%
C=CC(=O)N1CC2(CCN(c3nc(N4CC5(C4)[C@@H](O)CCN5C)nc4c(OCC(F)(F)F)c(-c5c(C)ccc6[nH]ncc56)c(C5CC5)cc34)CC2)C1 [Compound 271] | < 300 nM | > 90%
C=CC(=O)N1CC2(CCN(c3nc(N4CC5(C4)[C@H](O)CCN5C)nc4c(OCC(F)(F)F)c(-c5c(C)ccc6[nH]ncc56)c(C5CC5)cc34)CC2)C1 [Compound 272] | < 300 nM | > 90%
C=CC(=O)N1CC2(CCN(c3nc(N4CC5(C4)[C@@H](F)CCN5C)nc4c(OCC(F)(F)F)c(-c5c(C)ccc6[nH]ncc56)c(C5CC5)cc34)CC2)C1 [Compound 273] | < 300 nM | > 90%
C=CC(=O)N1CC2(CCN(c3nc(N4CC5(C4)[C@H](F)CCN5C)nc4c(OCC(F)(F)F)c(-c5c(C)ccc6[nH]ncc56)c(C5CC5)cc34)CC2)C1 [Compound 274] | < 300 nM | > 90%
C=CC(=O)N1CC2(CCN(c3nc(N4CC5(C4)[C@@H](OC)CCN5C)nc4c(OCC(F)(F)F)c(-c5c(C)ccc6[nH]ncc56)c(C5CC5)cc34)CC2)C1 [Compound 275] | < 300 nM | > 90%
C=CC(=O)N1CC2(CCN(c3nc(N4CC5(C4)[C@H](OC)CCN5C)nc4c(OCC(F)(F)F)c(-c5c(C)ccc6[nH]ncc56)c(C5CC5)cc34)CC2)C1 [Compound 276] | < 300 nM | > 90%
C=CC(=O)N1CC2(CCN(c3nc(N4CC5(C4)[C@@H](N(C)C)CCN5C)nc4c(OCC(F)(F)F)c(-c5c(C)ccc6[nH]ncc56)c(C5CC5)cc34)CC2)C1 [Compound 277] | < 300 nM | > 90%
C=CC(=O)N1CC2(CCN(c3nc(N4CC5(C4)[C@H](N(C)C)CCN5C)nc4c(OCC(F)(F)F)c(-c5c(C)ccc6[nH]ncc56)c(C5CC5)cc34)CC2)C1 [Compound 278] | < 300 nM | > 90%
C=CC(=O)N1CC2(CCN(c3nc(N4CC5(CCCO5)C4)nc4c(OCC(F)(F)F)c(-c5c(C)ccc6[nH]ncc56)c(C5CC5)cc34)CC2)C1 [Compound 279] | < 300 nM | > 90%
C=CC(=O)N1CC2(CCN(c3nc(N4CC5(C4)OCC[C@@H]5N(C)C)nc4c(OCC(F)(F)F)c(-c5c(C)ccc6[nH]ncc56)c(C5CC5)cc34)CC2)C1 [Compound 280] | < 300 nM | > 90%
C=CC(=O)N1CC2(CCN(c3nc(N4CC5(C4)OCC[C@H]5N(C)C)nc4c(OCC(F)(F)F)c(-c5c(C)ccc6[nH]ncc56)c(C5CC5)cc34)CC2)C1 [Compound 281] | < 300 nM | > 90%
C=CC(=O)N1CC2(CCN(c3nc(N4CC5(CC(O)C5)C4)nc4c(OCC(F)(F)F)c(-c5c(C)ccc6[nH]ncc56)c(C5CC5)cc34)CC2)C1 [Compound 282] | < 300 nM | > 90%
C=CC(=O)N1CC2(CCN(c3nc(N4CC5(CC(OC)C5)C4)nc4c(OCC(F)(F)F)c(-c5c(C)ccc6[nH]ncc56)c(C5CC5)cc34)CC2)C1 [Compound 283] | 300 to 1000 nM | 50 to 90%
C=CC(=O)N1CC2(CCN(c3nc(N4CC5(CC(F)C5)C4)nc4c(OCC(F)(F)F)c(-c5c(C)ccc6[nH]ncc56)c(C5CC5)cc34)CC2)C1 [Compound 284] | < 300 nM | > 90%
